Laboratory results reported in patent US20210116454A1, “METHODS FOR TREATING A HEMATOLOGICAL CANCER AND THE USE OF COMPANION BIOMARKERS FOR 2-(2,6-DIOXOPIPERIDIN-3-YL)-4-((2-FLUORO-4-((3-MORPHOLINOAZETIDIN-1-YL)METHYL)BENZYL)AMINO)ISOINDOLINE-1,3-DIONE” (CELGENE CORPORATION, priority 2019, published 2021).
Like-named read-outs stand apart in the source and are kept apart here.

Experiments:
Assay in all cases: 5-day viable cell number and apoptosis (7-AAD exclusion/Annexin V flow cytometry)
Type in all cases: cell-based
RIVA = tested on: RIVA
From the text: (§1) The DLBCL panel includes seven cell lines classified as activated B-cell (ABC) subtype, thirteen cell lines classified as the germinal center B-cell (GCB) subtype, and three cell lines classified as primary mediastinal B-cell lymphoma (PMBL). […] The translocation of MYC, BCL6, or BCL2 to an IG locus usually leads to high levels of mRNA and protein due to the active transcription driven by a constitutively active IG promoter. […] Expressions of CRBN protein and known substrates, Ikaros, Aiolos, and ZFP91 were also evaluated (FIG. 1, panels B and C).
(§2) The panel of cell lines were treated with increasing doses of compounds for five days, at which time the number of viable cells was measured and the amount of apoptosis was determined by 7-AAD exclusion and Annexin V staining using flow cytometry.

OCI-LY-3 = OCI-LY-3 cells, 5 days
From the text: as §1, §2

KARPAS-422 = tested on: KARPAS-422
From the text: as §1, §2

U2940 = U2940 cells, 5 days
From the text: as §1, §2

Toledo = Toledo cells, 5 days
From the text: as §1, §2

RC-K8 = tested on: RC-K8
From the text: as §1, §2

OCI-LY-19 = OCI-LY-19 cells, 5 days
From the text: as §1, §2

TMD8 = TMD8 cells, 5 days
From the text: as §1, §2

HT = tested on: HT
From the text: as §1, §2

Pfeiffer = tested on: Pfeiffer
From the text: as §1, §2

[1] = Homo sapiens, 120 h, KARPAS-422 cells, 5 days
[2] = Homo sapiens, 120 h, read-out: % Viable Cells IC50
[3] = Homo sapiens, RCK8, 120 h, RC-K8 cells, 5 days
[4] = Homo sapiens, 120 h, HT cells, 5 days
[5] = Homo sapiens, 120 h, Pfeiffer cells, 5 days

Structure (SMILES): O=C1CC[C@H](N2C(=O)c3cccc(NCc4ccc(CN5CC(N6CCOCC6)C5)cc4F)c3C2=O)C(=O)N1 [Compound 1, (S)-2-(2,6-dioxopiperidin-3-yl)-4-((2-fluoro-4-((3-morpholinoazetidin-1-yl)methyl)benzyl)amino)isoindoline-1,3-dione]
- IC50 (RIVA; RIVA cells (Table 3), read-out: IC50): 396000 nM
- % Viable Cells AUC (RIVA; RIVA cells, 5 days): 395.8
- % Viable Cells Emax (RIVA; RIVA cells, 5 days): 36.99%
- % Viable Cells Sensitivity (RIVA; RIVA cells, 5 days): Intermediate (intermediate sensitivity with 15% to 55% cell viability)
- Apoptosis AUC (RIVA; RIVA cells, 5 days): 216.6
- Apoptosis Sensitivity (RIVA; RIVA cells, 5 days): Intermediate
- EC50 (OCI-LY-3; Homo sapiens, OCI-Ly3, 120 h): 0.46 nM
- Emax (OCI-LY-3; Homo sapiens, OCI-Ly3, 120 h): 0.753%
- % Viable Cells AUC (OCI-LY-3): 986.1
- % Viable Cells Emax (OCI-LY-3): 84.33%
- % Viable Cells Sensitivity (OCI-LY-3): Limited
- Apoptosis AUC (OCI-LY-3): 7.009
- Apoptosis Sensitivity (OCI-LY-3): Limited
- EC50 (KARPAS-422; [1]): 32.5 nM
- Emax (KARPAS-422; [1]): 70.5%
- IC50 (KARPAS-422; Homo sapiens, 120 h, KARPAS-422 cells, 5 days, read-out: % Viable Cells IC50): 5.4 nM
- IC50 (KARPAS-422; Homo sapiens, KARPAS-422 cells (Table 3), read-out: IC50): 45000 nM
- % Viable Cells AUC (KARPAS-422; KARPAS-422 cells, 5 days): 45.21
- % Viable Cells Emax (KARPAS-422; KARPAS-422 cells, 5 days): 1.584%
- % Viable Cells Sensitivity (KARPAS-422; KARPAS-422 cells, 5 days): High (highly sensitive to Compound 1 with less than 6% viable cells remaining (Emax) after treatment)
- Apoptosis AUC (KARPAS-422; KARPAS-422 cells, 5 days): 682.2
- Apoptosis Sensitivity (KARPAS-422; KARPAS-422 cells, 5 days): High
- EC50 (U2940; Homo sapiens, U-2940, 120 h): 67.9 nM
- Emax (U2940; Homo sapiens, U-2940, 120 h): 29%
- IC50 (U2940; Homo sapiens, U-2940, 120 h, read-out: % Viable Cells IC50): 35 nM
- % Viable Cells AUC (U2940): 289.1
- % Viable Cells Emax (U2940): 29.24%
- % Viable Cells Sensitivity (U2940): Intermediate (intermediate sensitivity with 15% to 55% cell viability)
- Apoptosis AUC (U2940): 267.4
- Apoptosis Sensitivity (U2940): Intermediate
- EC50 (Toledo; Homo sapiens, 120 h): 500 nM
- Emax (Toledo; Homo sapiens, 120 h): 14%
- IC50 (Toledo; [2]): 500 nM
- % Viable Cells AUC (Toledo): 507
- % Viable Cells Emax (Toledo): 52.68%
- % Viable Cells Sensitivity (Toledo): Intermediate (intermediate sensitivity with 15% to 55% cell viability)
- Apoptosis AUC (Toledo): 114.8
- Apoptosis Sensitivity (Toledo): Intermediate
- EC50 (RC-K8; [3]): 230 nM
- Emax (RC-K8; [3]): 9.53%
- IC50 (RC-K8; Homo sapiens, RCK8, 120 h, RC-K8 cells, 5 days, read-out: % Viable Cells IC50): 100 nM
- IC50 (RC-K8; Homo sapiens, RCK8, RC-K8 cells (Table 3), read-out: IC50): 409000 nM
- % Viable Cells AUC (RC-K8; RC-K8 cells, 5 days): 409.1
- % Viable Cells Emax (RC-K8; RC-K8 cells, 5 days): 34.92%
- % Viable Cells Sensitivity (RC-K8; RC-K8 cells, 5 days): Intermediate (intermediate sensitivity with 15% to 55% cell viability)
- Apoptosis AUC (RC-K8; RC-K8 cells, 5 days): 81.59
- Apoptosis Sensitivity (RC-K8; RC-K8 cells, 5 days): Intermediate
- EC50 (OCI-LY-19; Homo sapiens, OCI-LY19, 120 h): 80.9 nM
- Emax (OCI-LY-19; Homo sapiens, OCI-LY19, 120 h): 30.6%
- IC50 (OCI-LY-19; Homo sapiens, OCI-LY19, 120 h, read-out: % Viable Cells IC50): 30 nM
- % Viable Cells AUC (OCI-LY-19): 283.3
- % Viable Cells Emax (OCI-LY-19): 28.11%
- % Viable Cells Sensitivity (OCI-LY-19): Intermediate (intermediate sensitivity with 15% to 55% cell viability)
- Apoptosis AUC (OCI-LY-19): 293.5
- Apoptosis Sensitivity (OCI-LY-19): Intermediate
- EC50 (TMD8; Homo sapiens, 120 h): 4.44 nM
- Emax (TMD8; Homo sapiens, 120 h): 83.2%
- IC50 (TMD8; [2]): 3 nM
- % Viable Cells AUC (TMD8): 3.911
- % Viable Cells Emax (TMD8): 1.365%
- % Viable Cells Sensitivity (TMD8): High (highly sensitive to Compound 1 with less than 6% viable cells remaining (Emax) after treatment)
- Apoptosis AUC (TMD8): 826.8
- Apoptosis Sensitivity (TMD8): High
- % Viable Cells AUC (HT; HT cells, 5 days): 434.8
- % Viable Cells Emax (HT; HT cells, 5 days): 45.18%
- % Viable Cells Sensitivity (HT; HT cells, 5 days): Intermediate (intermediate sensitivity with 15% to 55% cell viability)
- Apoptosis AUC (HT; HT cells, 5 days): 158.2
- Apoptosis Sensitivity (HT; HT cells, 5 days): Intermediate
- EC50 (HT; [4]): 7.82 nM
- Emax (HT; [4]): 16.6%
- IC50 (HT; Homo sapiens, 120 h, HT cells, 5 days, read-out: % Viable Cells IC50): 470 nM
- IC50 (HT; Homo sapiens, HT cells (Table 3), read-out: IC50): 435000 nM
- EC50 (Pfeiffer; [5]): 300 nM
- Emax (Pfeiffer; [5]): 8.01%
- IC50 (Pfeiffer; Homo sapiens, Pfeiffer cells (Table 3)): 855000 nM
- % Viable Cells AUC (Pfeiffer; Pfeiffer cells, 5 days): 912.3
- % Viable Cells Emax (Pfeiffer; Pfeiffer cells, 5 days): 86.19%
- % Viable Cells Sensitivity (Pfeiffer; Pfeiffer cells, 5 days): Limited
- Apoptosis AUC (Pfeiffer; Pfeiffer cells, 5 days): 133.5
- Apoptosis Sensitivity (Pfeiffer; Pfeiffer cells, 5 days): Limited
